Reference: patent US20060204537A1, “Silicone blends and composites for drug delivery” (Genzyme Corporation, priority 2002, published 2006)

Assay: Release of Paclitaxel from silicone elastomer coatings into calf serum
Assay type: physicochemical
Conditions: for steady state release rate of Paclitaxel: calf serum, 37° C.
Description: All samples were dip-coated pieces of 316 L stainless steel, measuring 1 cm×1 cm with 26 gauge thickness. The stainless steel pieces were first cleaned by sonicating in 3% Isopanasol, deionised (DI) water, and acetone, each for 6 minutes, then dipped into the silicone composite solutions of the invention. Silicone elastomer solutions were made with DAP® 100% silicone rubber adhesive (from DAP, Inc., Maryland) co-dissolved with either Paclitaxel or Tranilast and 20% (w/w) of polyethylene glycol, MW 3400 (PEG) in methylene chloride. Upon setting, the silicone elastomer solutions formed a film on the steel pieces having a certain thickness. Paclitaxel was loaded at 2% of silicone weight. Tranilast was loaded at 5% of silicone weight. […] All samples were placed in glass culture tubes with 2 mL of either PBS, pH 7.4 or calf serum. The culture tubes were then placed in a shaking water bath at 37° C. and 120 rpm. At each time interval, all of the release media was removed and replaced by fresh solution. Paclitaxel samples were assayed using a competitive inhibition enzyme immunoassay (CIEIA) kit from Hawaii Biotech, Aiea, Hi. Tranilast samples were assayed using UV spectrophotometry at a wavelength of 340 nm.

CC(=O)O[C@H]1C(=O)[C@@]2(C)[C@H]([C@H](OC(=O)c3ccccc3)[C@]3(O)C[C@H](OC(=O)[C@H](O)[C@@H](NC(=O)c4ccccc4)c4ccccc4)C(C)=C1C3(C)C)[C@]1(OC(C)=O)CO[C@@H]1C[C@@H]2O [Paclitaxel]
duration of almost zero-order release after the initial burst (both films, with and without PEG): 60 days | steady state release rate of Paclitaxel (films with 20% weight PEG MW 3400): 0.38 ± 0.03 µg/day | initial burst of Paclitaxel (films without PEG compared with films with 20% PEG): higher initial burst | steady state release rate of Paclitaxel (films without PEG): 0.21 ± 0.03 µg/day | duration of continued but decreased release (silicone elastomer coatings): ≤ 140 days
